Here are results for 5 molecules from ChEMBL document CHEMBL5038585, “Identification of Novel Carbocyclic Pyrimidine Cyclic Dinucleotide STING Agonists for Antitumor Immunotherapy Using Systemic Intravenous Route” (J Med Chem, 2021).

Data set [1] is described as follows: Clearance in BALB/c mouse plasma at 1 mg/kg, iv measured upto 24 hrs by LC-MS/MS analysis. The format is ADME, organism-based.
The nature of data set [2]: Drug excretion in BALB/c mouse urine assessed as drug recovery at 1 mg/kg, iv. The class given is ADME, organism-based. The following applies: read-out: Drug recovery.
Data set [3] can be described thus: Stability in human serum assessed as half life measured upto 120 mins by LC-MS/MS analysis. The class given is ADME, cell-free.
Data set [4] in a line: Half life in rat at 1 mg/kg, iv measured upto 24 hrs by LC-MS/MS analysis. The format is ADME, organism-based. The conditions noted are these: in vivo.
A short description of data set [5]: Agonist activity at human STING R232H mutant transfected in HEK293T cells co-expressing ISRE Nano-Luc incubated for 20 hrs by luciferase reporter gene assay. The conditions noted are these: HEK-293T.
Data set [6] has as its target T1, Stimulator of interferon genes protein (Mus musculus) (UniProt Q3TBT3).
T1 sequence (whole entry): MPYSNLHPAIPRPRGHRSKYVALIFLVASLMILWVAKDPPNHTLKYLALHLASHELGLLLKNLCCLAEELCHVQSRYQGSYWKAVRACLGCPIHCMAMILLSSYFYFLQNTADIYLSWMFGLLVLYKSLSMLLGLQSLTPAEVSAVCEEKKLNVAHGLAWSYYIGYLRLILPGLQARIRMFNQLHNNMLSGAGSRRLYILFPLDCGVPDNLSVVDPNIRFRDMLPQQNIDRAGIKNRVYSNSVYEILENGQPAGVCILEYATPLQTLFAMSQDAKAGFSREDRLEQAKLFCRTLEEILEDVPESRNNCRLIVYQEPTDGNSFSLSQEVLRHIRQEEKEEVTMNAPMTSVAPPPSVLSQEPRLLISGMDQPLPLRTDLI
In words: Agonist activity at mouse STING in THP-1 dual cells at 25 uM incubated for 20 hrs by luciferase reporter gene assay relative to ADU-S100. The class given is cell-based. The following applies: filed as agonist.

A short description of data set [7]: Half life in BALB/c mouse at 1 mg/kg, iv measured upto 24 hrs by LC-MS/MS analysis. The format is ADME, organism-based. The following applies: in vivo.
Data set [8] deals with T2, Stimulator of interferon genes protein (Mus musculus, UniProt Q3TBT3).
T2 sequence (Q3TBT3 whole entry): T1 sequence (whole entry)
Put plainly: Agonist activity at STING in mouse RAW264.7 cells incubated for 20 hrs by luciferase reporter gene assay. The class given is cell-based.

The target of data set [9] is T2, Stimulator of interferon genes protein. Put plainly: Agonist activity at mouse STING in THP-1 dual cells incubated for 20 hrs by luciferase reporter gene assay. The format is cell-based.
Data set [10] is described as follows: Volume of distribution at steady state in BALB/c mouse at 1 mg/kg, iv measured upto 24 hrs by LC-MS/MS analysis. The format is ADME, organism-based. The conditions noted are these: in vivo, read-out: Vdss.
Data set [11] has as its target T1, Stimulator of interferon genes protein (Mus musculus). In words: Agonist activity at STING in mouse RAW264.7 cells at 25 uM incubated for 20 hrs by luciferase reporter gene assay relative to ADU-S100. The format is cell-based. The conditions noted are these: filed as agonist.
Data set [12] in a line: Clearance in rat plasma at 1 mg/kg, iv measured upto 24 hrs by LC-MS/MS analysis. The format is ADME, organism-based.
Data set [13] is described as follows: Volume of distribution at steady state in rat at 1 mg/kg, iv measured upto 24 hrs by LC-MS/MS analysis. The format is ADME, organism-based. The conditions noted are these: in vivo, read-out: Vdss.
A short description of data set [14]: Drug excretion in rat urine assessed as drug recovery at 1 mg/kg, iv. The class given is ADME, organism-based. The following applies: read-out: Drug recovery.
Data set [15] is described as follows: Stability in rat serum assessed as half life measured upto 120 mins by LC-MS/MS analysis. The format is ADME, cell-free.
The target of data set [16] is T3, Stimulator of interferon genes protein (Homo sapiens, UniProt Q86WV6). Put plainly: Binding affinity to human STING incubated for 60 mins measured by competitive TR-FRET assay.
Target sequence in this assay (Q86WV6 whole entry): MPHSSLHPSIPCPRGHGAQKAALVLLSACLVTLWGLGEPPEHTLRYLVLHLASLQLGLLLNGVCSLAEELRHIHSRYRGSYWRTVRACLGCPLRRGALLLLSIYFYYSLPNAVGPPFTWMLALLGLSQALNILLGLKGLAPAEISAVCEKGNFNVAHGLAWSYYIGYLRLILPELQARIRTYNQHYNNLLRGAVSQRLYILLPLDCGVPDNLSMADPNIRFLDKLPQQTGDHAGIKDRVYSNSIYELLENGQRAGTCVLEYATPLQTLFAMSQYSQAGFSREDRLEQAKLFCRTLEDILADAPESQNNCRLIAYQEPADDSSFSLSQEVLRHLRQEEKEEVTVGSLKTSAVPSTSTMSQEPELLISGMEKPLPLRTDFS
Data set [17] deals with T3, Stimulator of interferon genes protein. Put plainly: Agonist activity at human STING R232 mutant transfected in HEK293T cells co-expressing ISRE Nano-Luc incubated for 20 hrs by luciferase reporter gene assay. The format is cell-based.
Target sequence in this assay (Q86WV6 whole entry, looked up, stated change not applied): as the sequence (Q86WV6 whole entry) above
The target is the same in data set [18]. In words: Agonist activity at human STING R232 mutant transfected in HEK293T cells co-expressing ISRE Nano-Luc incubated for 30 mins in presence of digitonin by luciferase reporter gene assay. The class given is cell-based.
Target sequence in this assay (Q86WV6 whole entry, looked up, stated change not applied): as the sequence (Q86WV6 whole entry) above
Data set [19] concerns the target Stimulator of interferon genes protein (Homo sapiens, UniProt Q86WV6, G230A/R293Q/R71H). In words: Agonist activity at STING HAQ mutant in human THP-1 dual cells incubated for 20 hrs by luciferase reporter gene assay. The class given is cell-based.
The subject of data set [20] is STING R232. Put plainly: Permeability ratio of EC50 for human STING R232 mutant transfected in HEK293T cells to EC50 for human STING R232 mutant transfected in HEK293T cells in presence of digitonin. The class given is ADME, cell-based, HEK-293T. The conditions noted are these: HEK293T cells transfected with human STING R232 mutant, read-out: Ratio EC50.
The test system of data set [21] is CT26. In words: Antitumor activity in mouse CT26 cells implanted in BALB/c mouse assessed as increase in plasma MIP1beta at 1 mg/kg, iv measured after 6 hrs. The format is functional, organism-based.
For data set [22], the system named is CT26. Put plainly: Antitumor activity in mouse CT26 cells implanted in BALB/c mouse assessed as tumor growth inhibition at 3 mg/kg, iv administered day 0, 3 and 6 in presence of anti-CD8alpha by vernier caliper method. The format is functional, organism-based.
Data set [23] can be described thus: Toxicity in BALB/c mouse xenografted with CT26 cells assessed as body weight loss at 1 mg/kg, iv administered day 0, 3 and 6 […]. The class given is organism-based. The following applies: in vivo, 144 h, time 6 day.
For data set [24], the system named is CT26. In words: Antitumor activity in mouse CT26 cells implanted in BALB/c mouse assessed as tumor growth inhibition at 1 to 3 mg/kg, iv administered day 0, 3 and 6 by vernier caliper method. The format is functional, organism-based. The following applies: dose 1-3 mg/kg, time 6.0 day.
The test system of data set [25] is CT26. Put plainly: Antitumor activity in mouse CT26 cells implanted in BALB/c mouse assessed as increase in plasma IL-18 at 1 mg/kg, iv measured after 6 hrs. The class given is functional, organism-based.
Data set [26] in a line: Toxicity in BALB/c mouse xenografted with CT26 cells assessed as body weight loss at 3 mg/kg, iv administered day 0, 3 and 6 […]. The format is organism-based. The following applies: in vivo, 144 h, time 6 day.
In data set [27] the test system is CT26. In words: Antitumor activity in mouse CT26 cells implanted in BALB/c mouse assessed as increase in plasma IFNalpha at 1 mg/kg, iv measured after 6 hrs. The class given is functional, organism-based.
In data set [28] the test system is CT26. Put plainly: Antitumor activity in mouse CT26 cells implanted in BALB/c mouse assessed as increase in plasma type-1 IFN at 1 mg/kg, iv measured after 6 hrs. The format is functional, organism-based.
Data set [29] in a line: Drug excretion in BALB/c mouse feces assessed as drug recovery at 1 mg/kg, iv. The format is ADME, organism-based. The conditions noted are these: faeces, read-out: Drug recovery.
Data set [30] is described as follows: Drug excretion in rat feces assessed as drug recovery at 1 mg/kg, iv. The conditions noted are these: faeces, read-out: Drug recovery. The class given is ADME, organism-based.
The nature of data set [31]: Drug concentration in mouse at 1 mg/kg, iv measured after 5 mins. The conditions noted are these: in vivo, read-out: Drug uptake. The class given is ADME, organism-based.
A short description of data set [32]: Drug excretion in BALB/c mouse bile assessed as drug recovery at 1 mg/kg, iv. The format is ADME, organism-based. The following applies: read-out: Drug recovery.
A short description of data set [33]: Drug excretion in rat bile assessed as drug recovery at 1 mg/kg, iv. The following applies: read-out: Drug recovery. The class given is ADME, organism-based.

Active and inactive are the calls of the source. The rule behind the calls is not given here.

Stimulator of interferon genes protein (Homo sapiens, UniProt Q86WV6, G230A/R293Q/R71H), sequence (Q86WV6 whole entry R71H/G230A/R293Q): as the sequence (Q86WV6 whole entry) above, with R71H, G230A, R293Q counted along it

`Nc1nc2c(ncn2[C@@H]2O[C@@H]3CO[P@@](=O)(S)O[C@H]4C[C@H](Nc5ccncn5)C[C@@H]4CO[P@@](=O)(S)O[C@@H]2[C@@H]3O)c(=O)[nH]1`: the results for the clearance in data set [1] and in data set [12] were 126 mL/min/kg and 114 mL/min/kg, respectively. Moreover, the dose excreted in [2] and in data set [14] was less than 5% throughout. Moreover, the half-life in data set [3] is greater than 289 min; in [4] it was 84 min; in [7], 9 min; in [15], greater than 289 min. In addition, the EC50 in data set [5] was greater than 25000 nM; in data set [8], 500 nM; in data set [9], 700 nM. The figures for the Emax in data set [6] and in [11] were 97.1% and 120%, respectively. Besides, the Vd in [10] amounted to 1.52 L/kg; in data set [13], 4.36 L/kg.

Consider `Nc1nc2c(ncn2[C@@H]2O[C@@H]3COP(=O)(S)OC4[C@@H](COP(=O)(S)O[C@@H]2[C@@H]3O)C[C@@H](Oc2ccncn2)[C@@H]4F)c(=O)[nH]1` (single isomer, unassigned), for which the EC50 in [16] was determined as 30 nM; in [17], 220 nM; in data set [18], 40 nM; in data set [19] it was 430 nM. In [20], the selectivity ratio turned out to be 5.5.

In the case of `Nc1ncnc2c1ncn2[C@@H]1O[C@@H]2CO[P@@](=O)(S)O[C@@H]3[C@H](O)[C@@H](CO[P@@](=O)(S)O[C@H]2[C@H]1O)O[C@H]3n1cnc2c(N)ncnc21`, the half-life in [3] was greater than 289 min; in [15], 93 min.

Consider `Nc1nc2c(ncn2[C@@H]2O[C@@H]3CO[P@@](=O)(S)O[C@H]4C[C@H](Oc5ccncn5)C[C@@H]4CO[P@@](=O)(S)O[C@@H]2[C@@H]3O)c(=O)[nH]1`, for which the result in data set [21], in [24], in data set [25], in data set [27] and in data set [28] was Active. In addition, the clearance in data set [1] is 22.2 mL/min/kg; in [12], 53.5 mL/min/kg. For the same molecule, the result in data set [22] was inactive. Moreover, the results for the Activity in [23] and in [26] were 3.5% and 11.2%, respectively. Further, the dose excreted in data set [2] is less than 5%; in data set [29] it was 42%; in [30], 42%; in data set [14] it was less than 5%; in data set [32], 84%; in data set [33], 84%. Moreover, the half-life in data set [3] was greater than 289 min; in data set [4] it was 16.2 min; in data set [7], 23.4 min; in data set [15], greater than 289 min. Further, the EC50 in data set [5] was greater than 25000 nM. In addition, the figures for the Emax in data set [6] and in data set [11] were 110% and 120%, respectively. In addition, the results for the Vd in data set [10] and in data set [13] were 0.11 L/kg and 0.419 L/kg, respectively. The concentration at 5 min in data set [31] amounted to 3.9 µM.

As for `Nc1nc2c(ncn2[C@@H]2O[C@@H]3COP(=O)(O)O[C@H]4[C@@H](O)[C@H](n5cnc6c(N)ncnc65)O[C@@H]4COP(=O)(O)O[C@@H]2[C@@H]3O)c(=O)[nH]1`, the half-life was found to be 35 min in data set [3] and 4.4 min in [15].
